According to ChEMBL document CHEMBL5705893, “Targeting the mitotic checkpoint for cancer therapy with NMS-P715, an inhibitor of MPS1 kinase” (Cancer Res, 2010):
Activity calls are given as the source filed them. The calls are words filed in the database; no cut-off is given here.

What was measured:
[1] = Antiproliferative activity against human GM13705 cells assessed as inhibition of cell growth incubated for 72 hrs by celltiter-glo assay; type: functional, cell-based; details: GM13705, 72 h
[2] = Half life in Athymic nu-nu mouse at 10 mg/kg, po measured upto 24 hrs by LC-MS/MS analysis; type: ADME, organism-based; details: in vivo
HL-60 = test: Antiproliferative activity against human HL-60 cells assessed as inhibition of cell growth incubated for 72 hrs by celltiter-glo assay; type: functional, cell-based; details: HL-60, 72 h
OPM-2 = test: Antiproliferative activity against human OPM-2 cells assessed as inhibition of cell growth incubated for 72 hrs by celltiter-glo assay; type: functional, cell-based; details: OPM-2, 72 h
HeLa [3] = test: Antiproliferative activity against human HeLa cells assessed as inhibition of cell growth incubated for 72 hrs by celltiter-glo assay; type: functional, cell-based
SW-403 = test: Antiproliferative activity against human SW403 cells assessed as inhibition of cell growth incubated for 72 hrs by celltiter-glo assay; type: functional, cell-based; details: SW-403, 72 h
RO82-W-1 = test: Antiproliferative activity against human RO82-W-1 cells assessed as inhibition of cell growth incubated for 72 hrs by celltiter-glo assay; type: functional, cell-based; details: RO82-W-1, 72 h
TK-10 = test: Antiproliferative activity against human TK-10 cells assessed as inhibition of cell growth incubated for 72 hrs by celltiter-glo assay; type: functional, cell-based; details: TK-10, 72 h
NCI-H1770 = test: Antiproliferative activity against human NCI-H1770 cells assessed as inhibition of cell growth incubated for 72 hrs by celltiter-glo assay; type: functional, cell-based; details: NCI-H1770, 72 h
HeLa [4] = test: Induction of mitotic arrest in human nocodazole-arrested HeLa cells assessed as delocalization of MAD1 in presence of MG132; type: functional, cell-based
[5] = Antiproliferative activity against human GM03798 cells assessed as inhibition of cell growth incubated for 72 hrs by celltiter-glo assay; type: functional, cell-based; details: GM03798, 72 h
[6] = target: Cyclin-dependent kinase 1/cyclin B1 (Homo sapiens, UniProt P06493); test: Inhibition of recombinant CDK1/CYCB (unknown origin); type: protein-complex assay
U2OS [7] = test: Induction of mitotic arrest in human U2OS cells expressing YFP-alpha-tubulin assessed as reduction in mitotic-phase length at 1 micromol/L by time-lapse microscopic analysis; type: functional, cell-based; details: dose 1.0 µmol/L
[8] = target: Serine/threonine-protein kinase Nek6 (Homo sapiens, UniProt Q9HC98); test: Inhibition of recombinant NEK6 (unknown origin) preincubated for 60 mins
COLO 205 = test: Antiproliferative activity against human COLO 205 cells assessed as inhibition of cell growth incubated for 72 hrs by celltiter-glo assay; type: functional, cell-based; details: COLO 205, 72 h
ACHN = test: Antiproliferative activity against human ACHN cells assessed as inhibition of cell growth incubated for 72 hrs by celltiter-glo assay; type: functional, cell-based
HT-29 = test: Antiproliferative activity against human HT-29 cells assessed as inhibition of cell growth incubated for 72 hrs by celltiter-glo assay; type: functional, cell-based; details: HT-29, 72 h
[9] = target: MAP kinase-interacting serine/threonine-protein kinase 2 (Homo sapiens, UniProt Q9HBH9); test: Inhibition of recombinant MNK2 (unknown origin)
MIA PaCa-2 = test: Antiproliferative activity against human MIA PaCa-2 cells assessed as inhibition of cell growth incubated for 72 hrs by celltiter-glo assay; type: functional, cell-based; details: MIA PaCa-2, 72 h
RPMI-8226 = test: Antiproliferative activity against human RPMI-8226 cells assessed as inhibition of cell growth incubated for 72 hrs by celltiter-glo assay; type: functional, cell-based; details: RPMI-8226, 72 h
[10] = target: Mast/stem cell growth factor receptor Kit (Homo sapiens, UniProt P10721); test: Inhibition of recombinant KIT (unknown origin)
U2OS [11] = test: Induction of mitotic arrest in human U2OS cells expressing YFP alpha-tubulin assessed as chromosome misalignment in anaphase incubated for 1 hr by DAPI staining based confocal microscopic analysis; type: functional, cell-based
LNCaP = test: Antiproliferative activity against human LNCaP cells assessed as inhibition of cell growth incubated for 72 hrs by celltiter-glo assay; type: functional, cell-based
A2780 [12] = test: Cell cycle arrest in human A2780 cells assessed as accumulation of cells at sub-G1 phase at 0.2 to 1 micromol/L incubated for 72 hrs by FACS/PI staining based flow cytometric analysis; type: functional; details: dose 0.2-1 µmol/L
HeLa [13] = test: Effect on CENPB level in human nocodazole-arrested HeLa cells at 1 micromol/L in presence of MG132; type: functional, cell-based; details: dose 1.0 µmol/L
NHDF = test: Antiproliferative activity against human NHDF cells assessed as inhibition of cell growth incubated for 72 hrs by celltiter-glo assay; type: functional, cell-based
NCI-H526 = test: Antiproliferative activity against human NCI-H526 cells assessed as inhibition of cell growth incubated for 72 hrs by celltiter-glo assay; type: functional, cell-based; details: NCI-H526, 72 h
Granta-519 = test: Antiproliferative activity against human Granta-519 cells assessed as inhibition of cell growth incubated for 72 hrs by celltiter-glo assay; type: functional, cell-based; details: Granta-519, 72 h
Jurkat = test: Antiproliferative activity against human Jurkat cells assessed as inhibition of cell growth incubated for 72 hrs by celltiter-glo assay; type: functional, cell-based
BJ = test: Antiproliferative activity against human BJ cells assessed as inhibition of cell growth incubated for 72 hrs by celltiter-glo assay; type: functional, cell-based
[14] = Inhibition of recombinant ABL (unknown origin); parameters: species or system Homo sapiens
L-363 = test: Antiproliferative activity against human L-363 cells assessed as inhibition of cell growth incubated for 72 hrs by celltiter-glo assay; type: functional, cell-based; details: L-363, 72 h
CAKI-1 = test: Antiproliferative activity against human CAKI-1 cells assessed as inhibition of cell growth incubated for 72 hrs by celltiter-glo assay; type: functional, cell-based; details: CAKI-1, 72 h
CAPAN-1 = test: Antiproliferative activity against human CAPAN-1 cells assessed as inhibition of cell growth incubated for 72 hrs by celltiter-glo assay; type: functional, cell-based; details: CAPAN-1, 72 h
BXPC-3 = test: Antiproliferative activity against human BXPC-3 cells assessed as inhibition of cell growth incubated for 72 hrs by celltiter-glo assay; type: functional, cell-based; details: BXPC-3, 72 h
[15] = Clearance in Athymic nu-nu mouse at 10 mg/kg, iv measured upto 24 hrs by LC-MS/MS analysis; type: ADME, organism-based; details: in vivo
LS174T = test: Antiproliferative activity against human LS174T cells assessed as inhibition of cell growth incubated for 72 hrs by celltiter-glo assay; type: functional, cell-based
[16] = Cmax in Athymic nu-nu mouse at 10 mg/kg, iv measured upto 24 hrs by LC-MS/MS analysis; type: ADME, organism-based; details: in vivo
MDA-MB-435 = test: Antiproliferative activity against human MDA-MB-435 cells assessed as inhibition of cell growth incubated for 72 hrs by celltiter-glo assay; type: functional, cell-based; details: MDA-MB-435, 72 h
A2780 [17] = test: Induction of apoptosis in human A2780 cells assessed as effect on histone H2AX phosphorylation 0.2 to 1 micromol/L incubated for 2 to 72 hrs by Western blot analysis; type: functional, cell-based; details: dose 0.2-1 µmol/L, time 2-72 hrs
U2OS [18] = test: Induction of mitotic arrest in human U2OS cells expressing YFP-alpha-tubulin assessed as mitotic index at 1 micromol/L in presence of MG132 by time-lapse microscopic analysis; type: functional, cell-based; details: dose 1.0 µmol/L

Chain of Mast/stem cell growth factor receptor Kit (P10721 whole entry): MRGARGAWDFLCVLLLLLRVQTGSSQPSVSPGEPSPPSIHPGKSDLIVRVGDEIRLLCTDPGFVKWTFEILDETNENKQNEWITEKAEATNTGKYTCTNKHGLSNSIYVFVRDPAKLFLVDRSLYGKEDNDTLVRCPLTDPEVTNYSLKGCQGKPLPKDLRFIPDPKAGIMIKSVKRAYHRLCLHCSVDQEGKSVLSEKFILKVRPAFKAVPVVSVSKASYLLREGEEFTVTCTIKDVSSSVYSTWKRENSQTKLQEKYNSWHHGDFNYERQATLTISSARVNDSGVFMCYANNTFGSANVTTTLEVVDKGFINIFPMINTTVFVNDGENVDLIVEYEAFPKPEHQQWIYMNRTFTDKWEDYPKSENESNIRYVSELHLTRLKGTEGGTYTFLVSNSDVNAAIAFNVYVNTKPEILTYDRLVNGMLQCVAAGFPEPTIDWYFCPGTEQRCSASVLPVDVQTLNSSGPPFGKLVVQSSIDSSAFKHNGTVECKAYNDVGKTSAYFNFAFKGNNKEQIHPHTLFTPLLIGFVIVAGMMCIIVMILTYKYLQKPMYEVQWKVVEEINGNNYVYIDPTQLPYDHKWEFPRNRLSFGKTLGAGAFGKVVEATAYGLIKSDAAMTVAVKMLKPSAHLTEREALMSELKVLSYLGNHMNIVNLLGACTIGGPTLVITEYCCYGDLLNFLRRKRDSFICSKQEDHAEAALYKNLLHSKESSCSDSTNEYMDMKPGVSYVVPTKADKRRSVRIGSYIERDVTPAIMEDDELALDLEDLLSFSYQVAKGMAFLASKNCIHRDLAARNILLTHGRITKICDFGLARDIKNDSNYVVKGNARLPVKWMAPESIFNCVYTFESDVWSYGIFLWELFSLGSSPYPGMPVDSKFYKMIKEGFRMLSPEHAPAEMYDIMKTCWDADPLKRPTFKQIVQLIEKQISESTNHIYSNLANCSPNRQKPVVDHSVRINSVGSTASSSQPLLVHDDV
Chain of Cyclin-dependent kinase 1/cyclin B1 (P06493 whole entry): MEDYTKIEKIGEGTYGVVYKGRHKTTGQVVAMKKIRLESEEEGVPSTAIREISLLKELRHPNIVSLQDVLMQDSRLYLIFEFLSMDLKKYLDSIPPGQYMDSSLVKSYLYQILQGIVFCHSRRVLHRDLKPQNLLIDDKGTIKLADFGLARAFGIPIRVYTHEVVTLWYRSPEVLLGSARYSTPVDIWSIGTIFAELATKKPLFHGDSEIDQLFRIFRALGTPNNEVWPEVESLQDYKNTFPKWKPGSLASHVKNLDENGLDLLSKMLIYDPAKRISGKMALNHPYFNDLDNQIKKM
Chain of Cyclin-dependent kinase 1/cyclin B1 (P14635 whole entry, further chain): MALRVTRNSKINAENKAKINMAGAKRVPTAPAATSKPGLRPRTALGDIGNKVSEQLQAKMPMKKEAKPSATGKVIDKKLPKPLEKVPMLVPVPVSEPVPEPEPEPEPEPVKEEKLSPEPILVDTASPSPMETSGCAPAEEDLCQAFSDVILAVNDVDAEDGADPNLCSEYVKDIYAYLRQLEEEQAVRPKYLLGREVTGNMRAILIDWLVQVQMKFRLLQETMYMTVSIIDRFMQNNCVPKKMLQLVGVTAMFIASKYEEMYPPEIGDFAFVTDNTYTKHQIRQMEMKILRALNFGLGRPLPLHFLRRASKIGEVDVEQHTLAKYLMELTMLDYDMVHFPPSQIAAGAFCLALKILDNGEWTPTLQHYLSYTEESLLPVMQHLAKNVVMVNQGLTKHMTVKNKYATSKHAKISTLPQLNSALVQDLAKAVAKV
Chain of MAP kinase-interacting serine/threonine-protein kinase 2 (Q9HBH9 whole entry): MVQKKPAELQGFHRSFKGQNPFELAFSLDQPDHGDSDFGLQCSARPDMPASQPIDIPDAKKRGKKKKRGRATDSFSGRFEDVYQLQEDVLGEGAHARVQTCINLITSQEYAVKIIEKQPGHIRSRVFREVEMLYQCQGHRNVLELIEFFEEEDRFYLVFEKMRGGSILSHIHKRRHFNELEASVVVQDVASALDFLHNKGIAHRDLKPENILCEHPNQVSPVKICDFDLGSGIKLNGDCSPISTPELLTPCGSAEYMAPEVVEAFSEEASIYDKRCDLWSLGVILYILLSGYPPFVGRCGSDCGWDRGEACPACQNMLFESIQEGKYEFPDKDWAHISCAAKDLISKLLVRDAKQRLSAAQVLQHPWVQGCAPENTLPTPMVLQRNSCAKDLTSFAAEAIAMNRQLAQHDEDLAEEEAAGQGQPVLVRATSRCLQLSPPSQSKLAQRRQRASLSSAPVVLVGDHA
Chain of Serine/threonine-protein kinase Nek6 (Q9HC98 whole entry): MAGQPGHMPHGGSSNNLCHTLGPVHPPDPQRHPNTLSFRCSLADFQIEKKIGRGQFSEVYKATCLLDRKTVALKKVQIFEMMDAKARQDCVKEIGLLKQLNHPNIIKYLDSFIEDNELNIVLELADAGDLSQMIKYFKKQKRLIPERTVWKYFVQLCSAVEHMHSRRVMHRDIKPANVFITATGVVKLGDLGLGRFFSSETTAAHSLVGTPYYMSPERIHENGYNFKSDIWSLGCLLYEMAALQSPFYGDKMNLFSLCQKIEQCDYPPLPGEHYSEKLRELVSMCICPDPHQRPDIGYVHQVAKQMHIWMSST

**Q.** What does the source list for CCc1cccc(CC)c1NC(=O)c1nn(C)c2c1CCc1cnc(Nc3ccc(C(=O)NC4CCN(C)CC4)cc3OC(F)(F)F)nc1-2?
**A.** IC50 [1]: 10 µM; half-life [2]: 8.01 h; IC50 (HL-60): 1.58 µM; IC50 (OPM-2): 2.31 µM; IC50 (HeLa [3]): 6.46 µM; IC50 (SW-403): 1.57 µM; IC50 (RO82-W-1): 9.31 µM; IC50 (TK-10): 1.54 µM; IC50 (NCI-H1770): 4.42 µM; Activity (HeLa [4]): Active; IC50 [5]: 9.4 µM; IC50 [6]: > 10 µM; Activity (U2OS [7]): Active; IC50 [8]: < 10 µM; IC50 (COLO 205): 0.592 µM; IC50 (ACHN): 0.015 µM; IC50 (HT-29): 3.92 µM; IC50 [9]: > 10 µM; IC50 (MIA PaCa-2): 2.55 µM; IC50 (RPMI-8226): 1.48 µM; IC50 [10]: > 10 µM; Activity (U2OS [11]): Active; IC50 (LNCaP): 3.07 µM; Activity (A2780 [12]): Active; Activity (HeLa [13]): Active; IC50 (NHDF): 10 µM; IC50 (NCI-H526): 2.2 µM; IC50 (Granta-519): 1.69 µM; IC50 (Jurkat): 3.61 µM; IC50 (BJ): 5.47 µM; IC50 [14]: > 10 µM; IC50 (L-363): 1.61 µM; IC50 (CAKI-1): 2 µM; IC50 (CAPAN-1): 5.22 µM; IC50 (BXPC-3): 2.18 µM; clearance [15]: 10 mL/min/kg; IC50 (LS174T): 1.94 µM; Cmax [16]: 4.79 µM; IC50 (MDA-MB-435): 1.96 µM; Activity (A2780 [17]): Active; Activity (U2OS [18]): inactive
